From the NIST ThermoML archive (doi:10.1016/j.jct.2014.04.016)
Several values for one entry are separate records, joined by “and”; a condition that tells them apart may be missing. Equal entries are not always repeated.

Experiment: xn = mol fraction of the nth substance listed
Conditions: 100 kPa; for electrical conductivity: Alternating current cell with electrodes; for viscosity: Concentric cylinders viscometry; for mass density: Vibrating tube method

CCCCCCCCOS(=O)(=O)[O-].CCn1cc[n+](C)c1 [1-ethyl-3-methylimidazolium octyl sulfate] + O
Conditions	electrical conductivity	mass density	viscosity
278.1 K, Glass, x1 = 0.1197	–	–	591.8 mPa·s
278.1 K, Glass, x1 = 0.3555	0.188 S/m	–	2561 mPa·s and 2061 mPa·s
278.1 K, Liquid, x1 = 0.0401	1.32 S/m and 1.31 S/m	–	–
278.1 K, Liquid, x1 = 0.0586	1.24 S/m	–	–
278.1 K, Liquid, x1 = 0.1197	–	1079 kg/m3	–
278.1 K, Liquid, x1 = 0.1402	–	1080.9 kg/m3	–
278.1 K, Liquid, x1 = 0.3555	–	1099.7 kg/m3 and 1099.8 kg/m3	–
278.1 K, Liquid, x1 = 0.4108	0.144 S/m	1101.5 kg/m3	394.6 mPa·s
278.1 K, Liquid, x1 = 0.4688	0.097 S/m	–	–
278.1 K, Liquid, x1 = 0.5001	0.089 S/m	–	–
278.6 K, Glass, x1 = 0.3555	–	–	1160 mPa·s
278.6 K, Liquid, x1 = 0.3555	–	1099.4 kg/m3	–
279.1 K, Glass, x1 = 0.3555	0.198 S/m	–	633.2 mPa·s
279.1 K, Liquid, x1 = 0.0803	1.1 S/m	–	–
279.1 K, Liquid, x1 = 0.1197	0.866 S/m	–	–
279.1 K, Liquid, x1 = 0.3555	–	1098.8 kg/m3	–
280.1 K, Glass, x1 = 0.1402	0.788 S/m	–	–
280.1 K, Liquid, x1 = 0.3555	0.206 S/m and 0.205 S/m	1098.3 kg/m3	307.6 mPa·s
280.1 K, Liquid, x1 = 0.4688	0.109 S/m	–	–
280.6 K, Liquid, x1 = 0.3555	–	1097.9 kg/m3	297.5 mPa·s
281.1 K, Glass, x1 = 0.1402	0.815 S/m and 0.816 S/m	–	–
281.1 K, Glass, x1 = 0.1605	0.737 S/m	–	–
281.1 K, Liquid, x1 = 0.0803	1.22 S/m	–	–
281.1 K, Liquid, x1 = 0.1197	0.927 S/m	–	–
281.1 K, Liquid, x1 = 0.3555	0.215 S/m and 0.214 S/m	1097.6 kg/m3	287.4 mPa·s
281.1 K, Liquid, x1 = 0.4108	0.168 S/m	–	–
282.1 K, Glass, x1 = 0.1402	0.848 S/m and 0.847 S/m	–	–
282.1 K, Glass, x1 = 0.1605	0.766 S/m	–	–
282.1 K, Glass, x1 = 0.3076	–	–	12190 mPa·s
282.1 K, Liquid, x1 = 0.3076	–	1094.6 kg/m3	–
282.1 K, Liquid, x1 = 0.3555	–	1096.9 kg/m3	268.8 mPa·s
282.6 K, Glass, x1 = 0.3076	–	–	7608 mPa·s
282.6 K, Liquid, x1 = 0.3076	–	1094.3 kg/m3	–
283.1 K, Glass, x1 = 0.1402	0.873 S/m and 0.874 S/m	–	11410 mPa·s
283.1 K, Glass, x1 = 0.1605	0.793 S/m and 0.791 S/m	–	–
283.1 K, Glass, x1 = 0.2119	0.566 S/m and 0.563 S/m	–	–
283.1 K, Glass, x1 = 0.2632	0.393 S/m	–	–
283.1 K, Glass, x1 = 0.3076	–	–	2873 mPa·s
283.1 K, Liquid, x1 = 0.0401	1.48 S/m	–	–
283.1 K, Liquid, x1 = 0.0586	1.46 S/m and 1.45 S/m	–	–
283.1 K, Liquid, x1 = 0.0803	1.29 S/m	–	–
283.1 K, Liquid, x1 = 0.1197	0.987 S/m	1075.7 kg/m3	105.5 mPa·s
283.1 K, Liquid, x1 = 0.1402	–	1078.9 kg/m3	–
283.1 K, Liquid, x1 = 0.3076	–	1094.1 kg/m3	–
283.1 K, Liquid, x1 = 0.3555	0.234 S/m and 0.236 S/m	1096.1 kg/m3 and 1096.2 kg/m3	251.8 mPa·s and 251.7 mPa·s
283.1 K, Liquid, x1 = 0.4108	0.189 S/m	1098 kg/m3	282.2 mPa·s
283.1 K, Liquid, x1 = 0.4688	0.128 S/m and 0.124 S/m	–	–
283.1 K, Liquid, x1 = 0.5001	0.117 S/m	–	–
283.6 K, Glass, x1 = 0.3076	–	–	1129 mPa·s
283.6 K, Liquid, x1 = 0.3076	–	1093.8 kg/m3	–
284.1 K, Glass, x1 = 0.1605	0.819 S/m	–	–
284.1 K, Glass, x1 = 0.2632	0.409 S/m	–	–
284.1 K, Glass, x1 = 0.3076	0.335 S/m	–	560.6 mPa·s
284.1 K, Liquid, x1 = 0.1402	0.908 S/m and 0.907 S/m	–	–
284.1 K, Liquid, x1 = 0.3076	–	1093.6 kg/m3	–
285.1 K, Glass, x1 = 0.1402	–	–	6220 mPa·s
285.1 K, Glass, x1 = 0.1605	0.847 S/m and 0.848 S/m	–	–
285.1 K, Glass, x1 = 0.2632	0.431 S/m	–	–
285.1 K, Glass, x1 = 0.3076	0.349 S/m	–	–
285.1 K, Liquid, x1 = 0.0803	1.37 S/m	–	–
285.1 K, Liquid, x1 = 0.1197	1.06 S/m	–	–
285.1 K, Liquid, x1 = 0.1402	0.934 S/m and 0.936 S/m	1077.9 kg/m3	–
285.1 K, Liquid, x1 = 0.3076	–	1092.7 kg/m3	191.9 mPa·s
285.1 K, Liquid, x1 = 0.3555	0.258 S/m and 0.257 S/m	–	–
285.1 K, Liquid, x1 = 0.4108	0.209 S/m	–	–
285.1 K, Liquid, x1 = 0.4688	0.142 S/m	–	–
285.6 K, Liquid, x1 = 0.3076	–	1092.4 kg/m3	186 mPa·s
286.1 K, Glass, x1 = 0.1402	–	–	4375 mPa·s
286.1 K, Glass, x1 = 0.1605	0.875 S/m and 0.876 S/m	–	–
286.1 K, Glass, x1 = 0.2632	0.449 S/m and 0.445 S/m	–	–
286.1 K, Glass, x1 = 0.3076	0.363 S/m and 0.362 S/m	–	–
286.1 K, Liquid, x1 = 0.1402	0.965 S/m and 0.967 S/m	1077.3 kg/m3	–
286.1 K, Liquid, x1 = 0.3076	–	1092 kg/m3	180.2 mPa·s
286.6 K, Glass, x1 = 0.2632	0.455 S/m	–	–
286.6 K, Liquid, x1 = 0.2632	–	1088.8 kg/m3	–
286.6 K, Liquid, x1 = 0.3076	–	1091.7 kg/m3	174.6 mPa·s
287.1 K, Glass, x1 = 0.1402	–	–	2587 mPa·s
287.1 K, Glass, x1 = 0.1605	0.904 S/m	–	–
287.1 K, Glass, x1 = 0.1766	0.817 S/m	–	–
287.1 K, Glass, x1 = 0.2632	0.463 S/m	–	14710 mPa·s
287.1 K, Liquid, x1 = 0.1197	1.13 S/m	–	–
287.1 K, Liquid, x1 = 0.1402	0.996 S/m and 0.997 S/m	–	–
287.1 K, Liquid, x1 = 0.1605	0.906 S/m	–	–
